Laboratory results taken from the supplement of paper PMC10307832.

Legend:
Assay in all cases: relative viability (nuclei count vs DMSO), 5 days (fraction); higher = more cells survive
[1] = tested on: NCI-H460
Procedure, shortened: (§1)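 Lung cancer cell lines in 1536-well plates got either a single drug or a fixed anchor-drug dose together with five library-drug doses (not always all listed) in √10 steps, by pin tool, on the day after seeding. Nuclei were counted after 5 days, and relative viability is the treated-to-vehicle ratio of nuclei counts. Values are medians of duplicate plates.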

[2] = tested on: NCI-H1755
Procedure, shortened: as §1

[3] = tested on: NCI-H1793
Procedure, shortened: as §1

[4] = tested on: HCC-366
Procedure, shortened: as §1

[5] = tested on: NCI-H2228
Procedure, shortened: as §1

[6] = tested on: NCI-H1651
Procedure, shortened: as §1

[7] = tested on: LC-2-ad
Procedure, shortened: as §1

[8] = tested on: NCI-H2087
Procedure, shortened: as §1

[9] = tested on: HCC-78
Procedure, shortened: as §1

[10] = tested on: LOU-NH91
Procedure, shortened: as §1

[11] = tested on: NCI-H2405
Procedure, shortened: as §1

[12] = tested on: UMC-11
Procedure, shortened: as §1

[13] = tested on: NCI-H1395
Procedure, shortened: as §1

[14] = tested on: ChaGo-K-1
Procedure, shortened: as §1

[15] = tested on: NCI-H3122
Procedure, shortened: as §1

[16] = tested on: ABC-1
Procedure, shortened: as §1

[17] = tested on: NCI-H1944
Procedure, shortened: as §1

[18] = tested on: NCI-H2170
Procedure, shortened: as §1

[19] = tested on: RERF-LC-KJ
Procedure, shortened: as §1

[20] = tested on: PC-3 [JPC-3]
Procedure, shortened: as §1

[21] = tested on: CAL-12T
Procedure, shortened: as §1

[22] = tested on: LU99A
Procedure, shortened: as §1

O=c1cc(-c2cccc3c2Sc2ccccc2S3)oc(N2CCOCC2)c1 + COc1cc2c(Oc3ccc(NC(=O)C4(C(=O)Nc5ccc(F)cc5)CC4)cc3F)ccnc2cc1OCCCN1CCOCC1 [Foretinib] (partner 0.25 µM) showed a relative viability ([1]; first compound 0.08 µM) of 1.04, a relative viability ([1]; first compound 0.253 µM) of 1.01 and a relative viability ([1]; first compound 0.8 µM) of 0.963. It also gave a relative viability ([1]; first compound 2.53 µM) of 1.02, a relative viability ([1]; first compound 8 µM) of 1.13 and a relative viability ([2]; first compound 0.08 µM) of 0.861. The relative viability ([2]; first compound 0.253 µM) was 0.976, the relative viability ([2]; first compound 0.8 µM) was 0.913 and the relative viability ([2]; first compound 2.53 µM) was 0.899. It also gave a relative viability ([2]; first compound 8 µM) of 0.943, a relative viability ([3]; first compound 0.08 µM) of 0.681 and a relative viability ([3]; first compound 0.253 µM) of 0.826. It also gave a relative viability ([3]; first compound 0.8 µM) of 0.562, a relative viability ([3]; first compound 2.53 µM) of 0.595 and a relative viability ([3]; first compound 8 µM) of 0.588. The relative viability ([4]; first compound 0.08 µM) was 0.911, the relative viability ([4]; first compound 0.253 µM) was 0.89 and the relative viability ([4]; first compound 0.8 µM) was 0.635. The relative viability ([4]; first compound 2.53 µM) was 0.903, the relative viability ([4]; first compound 8 µM) was 1.03 and the relative viability ([5]; first compound 0.08 µM) was 0.753. It also gave a relative viability ([5]; first compound 0.253 µM) of 0.907, a relative viability ([5]; first compound 0.8 µM) of 0.966 and a relative viability ([5]; first compound 2.53 µM) of 0.813. It also gave a relative viability ([5]; first compound 8 µM) of 1.11, a relative viability ([6]; first compound 0.08 µM) of 0.798 and a relative viability ([6]; first compound 0.253 µM) of 0.909. For the same compound, the relative viability ([6]; first compound 0.8 µM) was 0.861, the relative viability ([6]; first compound 2.53 µM) was 0.754 and the relative viability ([6]; first compound 8 µM) was 0.979. For the same compound, the relative viability ([7]; first compound 0.08 µM) was 0.888, the relative viability ([7]; first compound 0.253 µM) was 0.97 and the relative viability ([7]; first compound 0.8 µM) was 0.94. The relative viability ([7]; first compound 2.53 µM) was 0.875, the relative viability ([7]; first compound 8 µM) was 0.873 and the relative viability ([8]; first compound 0.08 µM) was 0.976. The relative viability ([8]; first compound 0.253 µM) was 1.13, the relative viability ([8]; first compound 0.8 µM) was 1.3 and the relative viability ([8]; first compound 2.53 µM) was 1.23. The relative viability ([8]; first compound 8 µM) was 1.19, the relative viability ([9]; first compound 0.08 µM) was 0.515 and the relative viability ([9]; first compound 0.253 µM) was 0.561. It also gave a relative viability ([9]; first compound 0.8 µM) of 0.519, a relative viability ([9]; first compound 2.53 µM) of 0.514 and a relative viability ([9]; first compound 8 µM) of 0.498. The relative viability ([10]; first compound 0.08 µM) was 0.976, the relative viability ([10]; first compound 0.253 µM) was 0.906 and the relative viability ([10]; first compound 0.8 µM) was 0.833. It also gave a relative viability ([10]; first compound 2.53 µM) of 0.838, a relative viability ([10]; first compound 8 µM) of 0.967 and a relative viability ([11]; first compound 0.08 µM) of 0.998. For the same compound, the relative viability ([11]; first compound 0.253 µM) was 1.09, the relative viability ([11]; first compound 0.8 µM) was 0.975 and the relative viability ([11]; first compound 2.53 µM) was 0.938. It also gave a relative viability ([11]; first compound 8 µM) of 1.04, a relative viability ([12]; first compound 0.08 µM) of 1.04 and a relative viability ([12]; first compound 0.253 µM) of 1.03. The relative viability ([12]; first compound 0.8 µM) was 1.19, the relative viability ([12]; first compound 2.53 µM) was 1.03 and the relative viability ([12]; first compound 8 µM) was 1.31. It also gave a relative viability ([13]; first compound 0.08 µM) of 0.934, a relative viability ([13]; first compound 0.253 µM) of 0.887 and a relative viability ([13]; first compound 0.8 µM) of 1.07. It also gave a relative viability ([13]; first compound 2.53 µM) of 0.938, a relative viability ([13]; first compound 8 µM) of 1.09 and a relative viability ([14]; first compound 0.08 µM) of 0.883. It also gave a relative viability ([14]; first compound 0.253 µM) of 0.98, a relative viability ([14]; first compound 0.8 µM) of 1.03 and a relative viability ([14]; first compound 2.53 µM) of 0.88. For the same compound, the relative viability ([14]; first compound 8 µM) was 0.861, the relative viability ([15]; first compound 0.08 µM) was 0.789 and the relative viability ([15]; first compound 0.253 µM) was 1.01. For the same compound, the relative viability ([15]; first compound 0.8 µM) was 1.02, the relative viability ([15]; first compound 2.53 µM) was 0.986 and the relative viability ([15]; first compound 8 µM) was 1.01. It also gave a relative viability ([16]; first compound 0.08 µM) of 1.25, a relative viability ([16]; first compound 0.253 µM) of 1.17 and a relative viability ([16]; first compound 0.8 µM) of 1.2. For the same compound, the relative viability ([16]; first compound 2.53 µM) was 1.04, the relative viability ([16]; first compound 8 µM) was 1.31 and the relative viability ([17]; first compound 0.08 µM) was 0.832. It also gave a relative viability ([17]; first compound 0.253 µM) of 0.853, a relative viability ([17]; first compound 0.8 µM) of 0.899 and a relative viability ([17]; first compound 2.53 µM) of 0.825. It also gave a relative viability ([17]; first compound 8 µM) of 0.951, a relative viability ([18]; first compound 0.08 µM) of 1.03 and a relative viability ([18]; first compound 0.253 µM) of 1.05. For the same compound, the relative viability ([18]; first compound 0.8 µM) was 1.08, the relative viability ([18]; first compound 2.53 µM) was 0.999 and the relative viability ([18]; first compound 8 µM) was 0.983. The relative viability ([19]; first compound 0.08 µM) was 0.836, the relative viability ([19]; first compound 0.253 µM) was 0.952 and the relative viability ([19]; first compound 0.8 µM) was 0.745. It also gave a relative viability ([19]; first compound 2.53 µM) of 0.995, a relative viability ([19]; first compound 8 µM) of 0.792 and a relative viability ([20]; first compound 0.08 µM) of 1.06. For the same compound, the relative viability ([20]; first compound 0.253 µM) was 1.08, the relative viability ([20]; first compound 0.8 µM) was 1.16 and the relative viability ([20]; first compound 2.53 µM) was 1.01. It also gave a relative viability ([20]; first compound 8 µM) of 1.2, a relative viability ([21]; first compound 0.08 µM) of 0.951 and a relative viability ([21]; first compound 0.253 µM) of 1.15. The relative viability ([21]; first compound 0.8 µM) was 1.19, the relative viability ([21]; first compound 2.53 µM) was 1.14 and the relative viability ([21]; first compound 8 µM) was 1. It also gave a relative viability ([22]; first compound 0.08 µM) of 0.825, a relative viability ([22]; first compound 0.253 µM) of 0.841 and a relative viability ([22]; first compound 0.8 µM) of 1.04. It also gave a relative viability ([22]; first compound 2.53 µM) of 0.829 and a relative viability ([22]; first compound 8 µM) of 1.13.
